The record followed here is article PMC13224317 (SLAS discovery : advancing life sciences R & D, 2025).

Values joined by “and” are separate entries in the source; they are usually repeats but may differ in a detail not shown here. Identical values can stand only once. Like-named read-outs stand apart in the source and are kept apart here.

Data set [1] has as its system icSARS-CoV-2-nLuc. The data set can be described thus: microbe, parasite or virus in culture. The class given is cell-based, SARS-CoV-2.
Data set [2] relates to icSARS-CoV-2-nLuc. Format: cell-based, SARS-CoV-2.
Data set [3] has as its system icSARS-CoV-2-nLuc. The data set can be described thus: microbe, parasite or virus in culture. The class given is cell-based, SARS-CoV-2. Particulars: Severe acute respiratory syndrome coronavirus 2, 48 h, read-out: IC50 against icSARS-CoV-2-nLuc, immunofluorescence data.
In another data set the test system is C3 cell line. Nature of the data set: Cytotoxicity toward the C3 cell line (single point at 10 μM and CC50). The class given is cell-based. Particulars: raw well reading, duplicate wells. The method, then: The rate of false positive hits was 2.5% between the two biological replicates. […] The 3 compounds have CC50 equal to- or higher than 36 μM. Based on available information, these three compounds have not been tested against SARS-CoV-2 nor have any reports of antiviral activity, and therefore warrant further investigation.

Data set [4] concerns icSARS-CoV-2-nLuc. Format: cell-based, SARS-CoV-2. This is another data set of the same source.
The mark [5] stands for this setting: Severe acute respiratory syndrome coronavirus 2, A549-ACE2, read-out: IC50, susceptibility of icSARS-CoV-2-nLuc to reference drugs, luminescence readout.

Broadly, the IC50 is the concentration that gives 50% inhibition. Regarding `CC(C)(C)[C@H](NC(=O)C(F)(F)F)C(=O)N1C[C@H]2[C@@H]([C@H]1C(=O)N[C@H](C#N)C[C@@H]1CCNC1=O)C2(C)C` [Nirmatrelvir], the IC50 in the data set with icSARS-CoV-2-nLuc [1] (setting [5]) came to 30 nM. Also, the “raw nLuc luminescence signal per well, dose response” value with icSARS-CoV-2-nLuc [1] (concentration 0.148148 µM) was 129461 and 120874 and 136852 and 130464 and 147289 and 142579 and 149179 and 144629; in the data set on icSARS-CoV-2-nLuc [1] (concentration 0.444444 µM) it was 144250 and 143681 and 125477 and 126336 and 137581 and 142321 and 138240 and 131508; in the data set with icSARS-CoV-2-nLuc [1] (concentration 1.33333 µM), 118306 and 118449 and 125083 and 124306 and 125230 and 130577 and 130784 and 122912; with icSARS-CoV-2-nLuc [1] (concentration 4 µM) it was 141288 and 139348 and 122581 and 121573 and 133806 and 135394 and 143645 and 132419; with icSARS-CoV-2-nLuc [1] (concentration 12 µM), 120474 and 114610 and 123671 and 120946 and 130686 and 127115 and 126419 and 123917; in the data set on icSARS-CoV-2-nLuc [1] (concentration 36 µM) it was 145649 and 139944 and 128235 and 120973 and 144302 and 134374 and 139812 and 128239.

Take `CC(C)(C)NC(=O)N[C@H](C(=O)N1C[C@H]2[C@@H]([C@H]1C(=O)NC(CC1CCC1)C(=O)C(N)=O)C2(C)C)C(C)(C)C` (some centres unmarked) [Boceprelvir, Boceprevir]: the IC50 in the data set on icSARS-CoV-2-nLuc [1] (setting [5]) was found to be 3000 nM. For the same compound, the “raw nLuc luminescence signal per well, dose response” value in the data set with icSARS-CoV-2-nLuc [1] (concentration 0.444444 µM) was 1318016 and 1552909 and 1027714 and 1937158 and 1341520 and 1697592 and 1866146 and 1427750; in the data set on icSARS-CoV-2-nLuc [1] (concentration 1.33333 µM) it was 1081320 and 1354101 and 1808712 and 2111860 and 1262757 and 1236512 and 1094043 and 1751641; with icSARS-CoV-2-nLuc [1] (concentration 12 µM), 325338 and 397893 and 288277 and 313675 and 434098 and 457388 and 421160 and 498406; in the data set on icSARS-CoV-2-nLuc [1] (concentration 36 µM), 152331 and 158422 and 131796 and 134954 and 143730 and 155578 and 143192 and 145460.

For the compound `CCCC[C@H](NC(=O)[C@@H]1[C@@H]2[C@H](CN1C(=O)[C@@H](NC(=O)NC1(CS(=O)(=O)C(C)(C)C)CCCCC1)C(C)(C)C)C2(C)C)C(=O)C(=O)NC1CC1` [Naraprelvir], the “raw nLuc luminescence signal per well, dose response” value is 1369356 and 1475085 and 1731318 and 2527784 and 1481798 and 1643468 and 2199354 and 1849240 with icSARS-CoV-2-nLuc [1] (concentration 0.00548697 µM); 1943993 and 1719572 and 1531026 and 1265407 and 2037762 and 2296036 and 2164802 and 2297300 in the data set on icSARS-CoV-2-nLuc [1] (concentration 0.0493827 µM); 156020 and 155359 and 134274 and 128833 and 143226 and 151190 and 148617 and 136366 in the data set with icSARS-CoV-2-nLuc [1] (concentration 36 µM).

A word on the inhibition: it is the percentage by which the read-out fell short of the control. For `CCC(CC)COC(=O)[C@H](C)N[P@](=O)(OC[C@H]1O[C@@](C#N)(c2ccc3c(N)ncnn23)[C@H](O)[C@@H]1O)Oc1ccccc1` [REM, Remdesivir], the “Low (luminescence signal)” value with icSARS-CoV-2-nLuc [2] was 335845.000 and 285428.000 and 332082.000 and 282797.000. In addition, the Mid % in the data set on icSARS-CoV-2-nLuc [2] is 82.63% and 75.37% and 74.20% and 71.84%. Also, the “Mid (luminescence signal)” value in the data set with icSARS-CoV-2-nLuc [2] is 685741.000 and 855540.000 and 882878.000 and 938084.000. The Midpc in the data set with icSARS-CoV-2-nLuc [2] is 82.63 and 75.37 and 74.20 and 71.84. Besides, the IC50 worked out at 110 nM in the data set on icSARS-CoV-2-nLuc [3] and 110 nM in the data set on icSARS-CoV-2-nLuc [1] (Severe acute respiratory syndrome coronavirus 2, A549-ACE2, 24 h, read-out: IC50 against icSARS-CoV-2-nLuc, luminescence data). Also, the “MMV hits Cytotoxicity testing, raw plate signal” value was 281684 and 292421 in the data set with C3 cell line (REM 0.0175781 µM); 291406 and 276805 with C3 cell line (REM 0.0351562 µM); 281356 and 294787 in the data set on C3 cell line (REM 0.0703125 µM); 287615 and 296564 with C3 cell line (REM 0.140625 µM); 294079 and 296093 in the data set with C3 cell line (REM 0.28125 µM); 294522 and 291744 in the data set with C3 cell line (REM 0.5625 µM). Also, the “MMV hits Cytotoxicity testing, raw plate signal” value is 302792 and 294805 in the data set with C3 cell line (REM 1.125 µM); 325677 and 303163 in the data set with C3 cell line (REM 2.25 µM); 318660 and 288026 in the data set on C3 cell line (REM 4.5 µM). Further, in the data set on icSARS-CoV-2-nLuc [4], the “%Spec” value is 89.5% and 90.0% and 90.1%. The “Luminescence signal, Mean (Low signal)” value with icSARS-CoV-2-nLuc [4] is 181028.44 and 176326.81 and 171413.00. Besides, the “Luminescence signal, Mean (Mid signal)” value with icSARS-CoV-2-nLuc [4] was 237318.53 and 220683.44 and 197501.22. For the same compound, in the data set on icSARS-CoV-2-nLuc [1], the “antiviral activity (raw luminescence signal per well)” value was 150661 and 137685 and 146593 and 141302. For the same compound, the inhibition at 10 µM in the data set with icSARS-CoV-2-nLuc [1] (Severe acute respiratory syndrome coronavirus 2, A549-ACE2, 24 h, read-out: inhibition of the virus growth, single point screening) was at least 90%. For the same compound, the “raw nLuc luminescence signal per well, dose response” value was 158425 and 172179 and 190756 and 205337 in the data set with icSARS-CoV-2-nLuc [1] (concentration 0.444444 µM); 140393 and 141108 and 138540 with icSARS-CoV-2-nLuc [1] (concentration 4 µM); 142704 and 141754 and 139812 in the data set with icSARS-CoV-2-nLuc [1] (concentration 36 µM).

As to `CCCC[C@H](NC(=O)[C@@H]1[C@@H]2[C@H](CN1C(=O)[C@@H](NC(=O)NC1(CS(=O)(=O)C(C)(C)C)CCCCC1)C(C)(C)C)C2(C)C)C(=O)C(=O)NC1CC1` [Narlaprevir], the IC50 with icSARS-CoV-2-nLuc [1] (setting [5]) came to 2000 nM.

Take `CC(C)C(=O)OC[C@H]1O[C@@H](n2ccc(NO)nc2=O)[C@H](O)[C@@H]1O` [Molnupiravir]: in the data set with icSARS-CoV-2-nLuc [1] (setting [5]), the IC50 was 1200 nM. The “raw nLuc luminescence signal per well, dose response” value is 595475 and 830276 and 640577 and 536261 and 913575 and 492391 and 665617 and 629700 in the data set on icSARS-CoV-2-nLuc [1] (concentration 4 µM); 258630 and 294602 and 224846 and 411089 and 320496 and 281484 and 318686 and 264637 with icSARS-CoV-2-nLuc [1] (concentration 12 µM); 206765 and 173526 and 155560 and 157303 and 194898 and 197104 and 194373 and 153593 in the data set with icSARS-CoV-2-nLuc [1] (concentration 36 µM).

As to `CC(C)c1nc(CN(C)C(=O)N[C@H](C(=O)N[C@@H](Cc2ccccc2)C[C@H](O)[C@H](Cc2ccccc2)NC(=O)OCc2cncs2)C(C)C)cs1` [Ritonavir], the IC50 in the data set with icSARS-CoV-2-nLuc [1] (setting [5]) stood at 7200 nM. For the same compound, the “raw nLuc luminescence signal per well, dose response” value in the data set on icSARS-CoV-2-nLuc [1] (concentration 0.444444 µM) is 2035673 and 1546345 and 1888256 and 1167395 and 1955627 and 1676062 and 1569839 and 1463523; in the data set with icSARS-CoV-2-nLuc [1] (concentration 4 µM), 1601511 and 1681837 and 928783 and 1028382 and 1282975 and 1526902 and 1006334 and 1132442; in the data set on icSARS-CoV-2-nLuc [1] (concentration 36 µM), 183316 and 177778 and 167818 and 167859 and 159406 and 217854 and 184869 and 201752.
